# System: B16F0 melanoma cells
# Assay: Transfection activity in B16F0 melanoma cells
# Assay type: cell-based
# Conditions: in the absence of helper lipid DOPE
# Text: FIG. 2 Transfection activity of 1,3lb3 and other commercially available cationic lipids in B16F0 melanoma cells. Lif/d stands for Lipofectamine/DOPE. The data are the average of six wells two independent experiments (n=3×2).
# FIG. 3 Transfection activity of 1,3lb3 (in the absence of DOPE) -a dipalmitoyl analogue with fluid lamellar phases at physiological pH and temperature-against B16F0 tumor melanoma cells. The plasmid DNA consisted of an EGFP reporter gene driven by the SV40 early promoter, cloned into a pUC21 vector (CloneTech Labs).
# FIG. 8 Transfection activity as tested by X-gal of cationic lipids against B16F0 melanoma cells in the absence of serum. The (+/−) ratio is fixed to 2. A. lb1 B. lb2 C. lb3 D. lb4 E. lb5
compound,measurement,value
"CCCCCCCCCCCCCCCC(=O)NCC(CNC(=O)CCCCCCCCCCCCCCC)OC(=O)N(CCN(C)C)CCN(C)C [13lb3, N,N′-dihexadecanoyl-1,3-diaminopropyl-2-carbamoyl-[bis-(2-dimethylaminoethane)]]",Transfection activity,efficient transfection activity

# Source: US20050095280A1, “Single-component pH-sensitive liposomes of reduced solid-to-liquid phase transition temperatures” (Michalakis Savva, priority 2003, published 2005)
